# Measurements as given in ChEMBL document CHEMBL1157650, “Synthesis and bradykinin inhibitory activity of novel non-peptide compounds, and evaluation of in vivo analgesic activity” (2010).
# The source made the active and inactive calls. The rule behind the calls is not given here.
# Tested on: Rattus norvegicus
# Assay: Analgesic activity in S1/S2 spinal nerve ligated rat model of neuropathic pain assessed as suppression of mechanical stimuli-induced allodynia at 60 mg/kg, ip
# Type: functional, organism-based
# Design: dose 60 mg/kg
# Conditions: not given
row,SMILES,Activity
1,CC(CCc1ccccc1)NC(=O)/C=C\C(=O)N1CCN(C(c2ccc(F)cc2)c2ccc(F)cc2)CC1 (centres undefined),inactive

# Tested on: Rattus norvegicus
# Assay: Antinociceptive activity against formalin-induced pain in rat assessed as time spent in licking, shaking or biting paw in early phase at 60 ug, sc (Rvb=47.05 +/- 8.53 sec)
# Type: functional
# Conditions: not given
row,SMILES,Activity [s]
1,CC(CCc1ccccc1)NC(=O)/C=C\C(=O)N1CCN(C(c2ccc(F)cc2)c2ccc(F)cc2)CC1 (centres undefined),14.82

# Tested on: Rattus norvegicus
# Assay: Analgesic activity in S1/S2 spinal nerve ligated rat model of neuropathic pain assessed as suppression of warm water-induced allodynia at 60 mg/kg, ip
# Type: functional, organism-based
# Design: dose 60 mg/kg
# Conditions: not given
row,SMILES,Activity
1,CC(CCc1ccccc1)NC(=O)/C=C\C(=O)N1CCN(C(c2ccc(F)cc2)c2ccc(F)cc2)CC1 (centres undefined),Active

# Tested on: Rattus norvegicus
# Assay: Analgesic activity in S1/S2 spinal nerve ligated rat model of neuropathic pain assessed as suppression of cold water-induced allodynia at 60 mg/kg, ip
# Type: functional, organism-based
# Design: dose 60 mg/kg
# Conditions: not given
row,SMILES,Activity
1,CC(CCc1ccccc1)NC(=O)/C=C\C(=O)N1CCN(C(c2ccc(F)cc2)c2ccc(F)cc2)CC1 (centres undefined),Active

# Tested on: Rattus norvegicus
# Assay: Antinociceptive activity against formalin-induced pain in rat assessed as time spent in licking, shaking or biting paw in late phase at 60 ug, sc (Rvb=334.21 +/- 51.10 sec)
# Type: functional
# Conditions: not given
row,SMILES,Activity [s]
1,CC(CCc1ccccc1)NC(=O)/C=C\C(=O)N1CCN(C(c2ccc(F)cc2)c2ccc(F)cc2)CC1 (centres undefined),129.31

# Tested on: Ileum
# Assay: Inhibition of bradykinin-induced Hartley guinea pig ileum contraction at 1 uM relative to control
# Type: functional
# Conditions: Cavia porcellus
row,SMILES,inhibition at 1 µM [%]
1,COc1ccc(CNC(=O)CC(C)CC(=O)N2CCN(C(c3ccccc3)c3ccc(Cl)cc3)CC2)cc1 (centres undefined),64.9
2,N=C(N)NCCC[C@@H](N)C(=O)N[C@@H](CCCNC(=N)N)C(=O)N1CCC[C@H]1C(=O)N1C[C@H](O)C[C@H]1C(=O)NCC(=O)N[C@@H](Cc1cccs1)C(=O)N[C@@H](CO)C(=O)N1Cc2ccccc2C[C@@H]1C(=O)N1[C@H](C(=O)N[C@@H](CCCNC(=N)N)C(=O)O)C[C@@H]2CCCC[C@@H]21 [ICATIBANT],100
3,Cc1ccc(CNC(=O)/C=C\C(=O)N2CCCN(C(c3ccccc3)c3ccc(Cl)cc3)CC2)cc1 (centres undefined),79.4
4,O=C(CCC(=O)N1CCN(C(c2ccccc2)c2ccc(Cl)cc2)CC1)NC1CCCCC1 (centres undefined),79
5,COc1ccc(CNC(=O)/C=C\C(=O)N2CCN(C(c3ccccc3)c3ccc(Cl)cc3)CC2)cc1 (centres undefined),74.1
6,COc1ccc(CNC(=O)/C=C\C(=O)N2CCN(C(c3ccc(F)cc3)c3ccc(F)cc3)CC2)cc1,79.6
7,CC(C)(CC(=O)NC1CCCCC1)CC(=O)N1CCN(C(c2ccccc2)c2ccc(Cl)cc2)CC1 (centres undefined),28
8,CC(CC(=O)N(C)C)CC(=O)N1CCN(C(c2ccccc2)c2ccc(Cl)cc2)CC1 (centres undefined),36
9,O=C(/C=C\C(=O)N1CCN(C(c2ccccc2)c2ccc(Cl)cc2)CC1)NC1CCCCC1 (centres undefined),57.4
10,COc1ccc(CNC(=O)CCC(=O)N2CCCN(C(c3ccccc3)c3ccc(Cl)cc3)CC2)cc1 (centres undefined),80.9
11,COc1cc(CNC(=O)CCC(=O)N2CCN(C(c3ccccc3)c3ccc(Cl)cc3)CC2)cc(OC)c1OC (centres undefined),65.2
12,Cc1ccc(CNC(=O)CCC(=O)N2CCN(C(c3ccccc3)c3ccc(Cl)cc3)CC2)cc1 (centres undefined),67.9
13,O=C(/C=C\C(=O)N1CCN(C(c2ccc(F)cc2)c2ccc(F)cc2)CC1)NC1CCCCC1,65.4
14,COc1cc(CNC(=O)CC(C)CC(=O)N2CCCN(C(c3ccccc3)c3ccc(Cl)cc3)CC2)cc(OC)c1OC (centres undefined),69.7
15,CC(CC(=O)NC1CCCCC1)CC(=O)N1CCCN(C(c2ccccc2)c2ccc(Cl)cc2)CC1 (centres undefined),80.3
16,COc1ccc(CNC(=O)/C=C\C(=O)N2CCCN(C(c3ccccc3)c3ccc(Cl)cc3)CC2)cc1 (centres undefined),75
17,COc1ccc(CNC(=O)CCC(=O)N2CCN(C(c3ccccc3)c3ccc(Cl)cc3)CC2)cc1 (centres undefined),57.2

row,SMILES,inhibition at 1 µM [%]
1,CC(CCc1ccccc1)NC(=O)/C=C\C(=O)N1CCN(C(c2ccc(F)cc2)c2ccc(F)cc2)CC1 (centres undefined),86.6
2,Cc1ccc(CNC(=O)CC(C)CC(=O)N2CCCN(C(c3ccccc3)c3ccc(Cl)cc3)CC2)cc1 (centres undefined),81.3
3,COc1ccc(CNC(=O)CC(C)(C)CC(=O)N2CCN(C(c3ccccc3)c3ccc(Cl)cc3)CC2)cc1 (centres undefined),31.6
4,CC(CCc1ccccc1)NC(=O)/C=C\C(=O)N1CCN(C(c2ccccc2)c2ccccc2)CC1 (centres undefined),77.5
5,CC(CCc1ccccc1)NC(=O)/C=C\C(=O)N1CCCN(C(c2ccccc2)c2ccc(Cl)cc2)CC1 (centres undefined),79.7
6,COc1cc(CNC(=O)CCC(=O)N2CCCN(C(c3ccccc3)c3ccc(Cl)cc3)CC2)cc(OC)c1OC (centres undefined),72.6
7,O=C(/C=C\C(=O)N1CCCN(C(c2ccccc2)c2ccc(Cl)cc2)CC1)NC1CCCCC1 (centres undefined),66
8,Cc1ccc(CNC(=O)/C=C\C(=O)N2CCN(C(c3ccc(F)cc3)c3ccc(F)cc3)CC2)cc1,84.5
9,Cc1ccc(CNC(=O)CC(C)CC(=O)N2CCN(C(c3ccccc3)c3ccc(Cl)cc3)CC2)cc1 (centres undefined),64.8
10,CC(CC(=O)NC1CCCCC1)CC(=O)N1CCN(C(c2ccccc2)c2ccc(Cl)cc2)CC1 (centres undefined),60.8
11,COc1cc(CNC(=O)CC(C)(C)CC(=O)N2CCN(C(c3ccccc3)c3ccc(Cl)cc3)CC2)cc(OC)c1OC (centres undefined),49.1
12,Cc1ccc(CNC(=O)CC(C)(C)CC(=O)N2CCN(C(c3ccccc3)c3ccc(Cl)cc3)CC2)cc1 (centres undefined),32.9
13,Cc1ccc(CNC(=O)/C=C\C(=O)N2CCN(C(c3ccccc3)c3ccc(Cl)cc3)CC2)cc1 (centres undefined),78.5
14,COc1ccc(CNC(=O)CC(C)CC(=O)N2CCCN(C(c3ccccc3)c3ccc(Cl)cc3)CC2)cc1 (centres undefined),78.3
15,COc1cc(CNC(=O)CC(C)CC(=O)N2CCN(C(c3ccccc3)c3ccc(Cl)cc3)CC2)cc(OC)c1OC (centres undefined),53.1
16,Cc1ccc(CNC(=O)CCC(=O)N2CCCN(C(c3ccccc3)c3ccc(Cl)cc3)CC2)cc1 (centres undefined),67.7
17,O=C(CCC(=O)N1CCCN(C(c2ccccc2)c2ccc(Cl)cc2)CC1)NC1CCCCC1 (centres undefined),71.7
